According to patent US20210254056A1, “IDENTIFICATION AND TARGETED MODULATION OF GENE SIGNALING NETWORKS” (CAMP4 THERAPEUTICS CORPORATION, priority 2017, published 2021):

Tested on: hepatocytes
Assay: RNA-seq of hepatocytes treated with Phase III failure compounds
Procedure: RNA-seq was performed to determine the effects of the compounds on hepatocytes.
Significance was determined by the criteria of FPKM≥0.5, a log 2(fold-change)≥1, and a […].

C=CCNC1=C2C[C@@H](C)C[C@H](OC)[C@H](O)[C@@H](C)/C=C(\C)[C@H](OC(N)=O)[C@@H](OC)/C=C\C=C(/C)C(=O)NC(=CC1=O)C2=O [17-MG (Tanespimycin), Tanespimycin]
RNA-seq results, CYP2B6 expression: 1.32 | RNA-seq results, CYP2C19 expression: 0.34 | RNA-seq results, CYP2D6 expression: 0.06 | RNA-seq results, CYP3A4 expression: 2.50 | RNA-seq results, CYP7B1 expression: 0.43 | RNA-seq results, CYP39A1 expression: 1.38 | RNA-seq results: CYP2B6 expression: 0.2 | RNA-seq results: CYP2C19 expression: −1.4 | RNA-seq results: CYP2D6 expression: 0.27 | RNA-seq results: CYP3A4 expression: 0.96 | RNA-seq results: CYP7B1 expression: −1.05 | RNA-seq results: CYP39A1 expression: −0.62 | RNA-seq results: A1BG expression (gene A1BG, hepatocytes): −0.10 | RNA-seq results: AGTR1 expression (gene AGTR1, hepatocytes): −0.03 | RNA-seq results: AGXT expression (gene AGXT, hepatocytes): 0.27 | RNA-seq results: AHI1 expression (gene AHI1, hepatocytes): 0.39 | RNA-seq results: AMPD3 expression (gene AMPD3, hepatocytes): 1.15 | RNA-seq results: AMT expression (gene AMT, hepatocytes): 0.31 | RNA-seq results: ANGPTL3 expression (gene ANGPTL3, hepatocytes): 0.06 | RNA-seq results: ANKS4B expression (gene ANKS4B, hepatocytes): 1.12 | RNA-seq results: ANKS6 expression (gene ANKS6, hepatocytes): −0.15 | RNA-seq results: ANPEP expression (gene ANPEP, hepatocytes): −0.06 | RNA-seq results: AOC2 expression (gene AOC2, hepatocytes): 0.24 | RNA-seq results: APOA2 expression (gene APOA2, hepatocytes): −0.64 | RNA-seq results: APOA5 expression (gene APOA5, hepatocytes): 0.07 | RNA-seq results: APOB expression (gene APOB, hepatocytes): 2.13 | RNA-seq results: COG5 expression (gene COG5, hepatocytes): −1.94 | RNA-seq results: COG6 expression (gene COG6, hepatocytes): −0.28 | RNA-seq results: COL1A1 expression (gene COL1A1, hepatocytes): 0.45 | RNA-seq results: COX6A1 expression (gene COX6A1, hepatocytes): 0.27 | RNA-seq results: CP expression (gene CP, hepatocytes): 0.19 | RNA-seq results: CPS1 expression (gene CPS1, hepatocytes): −0.79 | RNA-seq results: CPT1A expression (gene CPT1A, hepatocytes): −1.18 | RNA-seq results: CPT2 expression (gene CPT2, hepatocytes): 1.3 | RNA-seq results: CROT expression (gene CROT, hepatocytes): 0.23 | RNA-seq results: CSPP1 expression (gene CSPP1, hepatocytes): −0.45 | RNA-seq results: CTC1 expression (gene CTC1, hepatocytes): 0.65 | RNA-seq results: CTDSP2 expression (gene CTDSP2, hepatocytes): −0.36 | RNA-seq results: CTH expression (gene CTH, hepatocytes): 1.32 | RNA-seq results: CTNS expression (gene CTNS, hepatocytes): −0.39 | RNA-seq results: CTSF expression (gene CTSF, hepatocytes): 0.01 | RNA-seq results: CTSK expression (gene CTSK, hepatocytes): 1.01 | RNA-seq results: CYB5A expression (gene CYB5A, hepatocytes): −0.54 | RNA-seq results: CYB5R3 expression (gene CYB5R3, hepatocytes): −0.57 | RNA-seq results: CYP27A1 expression (gene CYP27A1, hepatocytes): −0.12 | RNA-seq results: DAO expression (gene DAO, hepatocytes): −0.79 | RNA-seq results: DBT expression (gene DBT, hepatocytes): −0.27 | RNA-seq results: DCDC2 expression (gene DCDC2, hepatocytes): −2.14 | RNA-seq results: DCXR expression (gene DCXR, hepatocytes): −0.21 | RNA-seq results: FABP1 expression (gene FABP1, hepatocytes): −0.95 | RNA-seq results: FADD expression (gene FADD, hepatocytes): −0.41 | RNA-seq results: FAM111A expression (gene FAM111A, hepatocytes): 0.93 | RNA-seq results: FAM111B expression (gene FAM111B, hepatocytes): −1.24 | RNA-seq results: FAN1 expression (gene FAN1, hepatocytes): 0.32 | RNA-seq results: FARS2 expression (gene FARS2, hepatocytes): −3 | RNA-seq results: FASLG expression (gene FASLG, hepatocytes): −1.15 | RNA-seq results: FGA expression (gene FGA, hepatocytes): 0.46 | RNA-seq results: FGD1 expression (gene FGD1, hepatocytes): −1.37 | RNA-seq results: FGFR2 expression (gene FGFR2, hepatocytes): −2.48 | RNA-seq results: FIG4 expression (gene FIG4, hepatocytes): −0.69 | RNA-seq results: FIS1 expression (gene FIS1, hepatocytes): −0.22 | RNA-seq results: FTCD expression (gene FTCD, hepatocytes): −1.66 | RNA-seq results: FTH1 expression (gene FTH1, hepatocytes): −0.49 | RNA-seq results: FUCA1 expression (gene FUCA1, hepatocytes): 0.43 | RNA-seq results: FXN expression (gene FXN, hepatocytes): −1.04 | RNA-seq results: G6PC3 expression (gene G6PC3, hepatocytes): −0.38 | RNA-seq results: G6PC expression (gene G6PC, hepatocytes): −0.03 | RNA-seq results: G6PD expression (gene G6PD, hepatocytes): 1.7 | RNA-seq results: GALK1 expression (gene GALK1, hepatocytes): −0.7 | RNA-seq results: GALK2 expression (gene GALK2, hepatocytes): −1.47 | RNA-seq results: GALT expression (gene GALT, hepatocytes): −0.43 | RNA-seq results: GATA6 expression (gene GATA6, hepatocytes): −0.77 | RNA-seq results: GATM expression (gene GATM, hepatocytes): −1.11 | RNA-seq results: GBA expression (gene GBA, hepatocytes): −0.38 | RNA-seq results: GBE1 expression (gene GBE1, hepatocytes): −2.25 | RNA-seq results: GCH1 expression (gene GCH1, hepatocytes): 0.43 | RNA-seq results: GCKR expression (gene GCKR, hepatocytes): −0.16 | RNA-seq results: GCLC expression (gene GCLC, hepatocytes): −0.18 | RNA-seq results: GOSH expression (gene GOSH, hepatocytes): −1.49 | RNA-seq results: RRM2B (gene RRM2B, hepatocytes): 1.19 | RNA-seq results: RSAD1 (gene RSAD1, hepatocytes): −0.23 | RNA-seq results: SAMHD1 (gene SAMHD1, hepatocytes): −0.05 | RNA-seq results: SC5D (gene SC5D, hepatocytes): 1.56 | RNA-seq results: SCARB1 (gene SCARB1, hepatocytes): −0.35 | RNA-seq results: SCN9A (gene SCN9A, hepatocytes): −0.22 | RNA-seq results: SDCCAG8 (gene SDCCAG8, hepatocytes): 0.11 | RNA-seq results: SEPN1 (gene SEPN1, hepatocytes): −0.07 | RNA-seq results: SERAC1 (gene SERAC1, hepatocytes): 0.26 | RNA-seq results: SERPINA1 (gene SERPINA1, hepatocytes): −0.05 | RNA-seq results: SERPING1 (gene SERPING1, hepatocytes): 0.28 | RNA-seq results: SERPINI1 (gene SERPINI1, hepatocytes): 0.22 | RNA-seq results: SETBP1 (gene SETBP1, hepatocytes): 0.54 | RNA-seq results: SFXN4 (gene SFXN4, hepatocytes): −0.14 | RNA-seq results: SLC10A1 (gene SLC10A1, hepatocytes): 1.13 | RNA-seq results: SLC10A3 (gene SLC10A3, hepatocytes): −1.25 | RNA-seq results: SLC10A5 (gene SLC10A5, hepatocytes): 2.20 | RNA-seq results: SLC10A7 (gene SLC10A7, hepatocytes): 0.55 | RNA-seq results: SLC11A2 (gene SLC11A2, hepatocytes): 0.65 | RNA-seq results: SLC19A1 (gene SLC19A1, hepatocytes): −0.71 | RNA-seq results: SLC19A2 (gene SLC19A2, hepatocytes): 0.62 | RNA-seq results: SLC19A3 (gene SLC19A3, hepatocytes): 0.68 | RNA-seq results: SLC22A1 (gene SLC22A1, hepatocytes): 0.08 | RNA-seq results: SLC22A5 (gene SLC22A5, hepatocytes): −0.72 | RNA-seq results: SLC25A1 (gene SLC25A1, hepatocytes): −0.29 | RNA-seq results: SLC25A10 (gene SLC25A10, hepatocytes): −0.45 | RNA-seq results: SLC25A12 (gene SLC25A12, hepatocytes): −0.06 | RNA-seq results: SLC25A13 (gene SLC25A13, hepatocytes): 0.72 | RNA-seq results: SLC25A15 (gene SLC25A15, hepatocytes): 0.58 | RNA-seq results: SLC25A19 (gene SLC25A19, hepatocytes): −0.70 | RNA-seq results: SLC25A20 (gene SLC25A20, hepatocytes): −0.52 | RNA-seq results: SLC25A29 (gene SLC25A29, hepatocytes): −1.07 | RNA-seq results: SLC25A32 (gene SLC25A32, hepatocytes): −0.50
